Source: the NIST ThermoML archive (doi:10.1021/acs.jced.8b00583)

Conditions: for electrical conductivity / viscosity / mass density: 100 kPa; for electrical conductivity / viscosity / mass density / surface tension liquid-gas: Liquid; for electrical conductivity: Alternating current cell with electrodes; for viscosity: Capillary tube (Ostwald / Ubbelohde) method; for mass density: Vibrating tube method; for surface tension liquid-gas: Maximal bubble pressure; for Glass transition temperature: DSC

CC(=O)O.CCCCN [butylammonium acetate]
Conditions	Glass transition temperature [°C]	electrical conductivity [S/m]	mass density [kg/m3]	surface tension liquid-gas [mN/m]	viscosity [mPa·s]
–	-98.90	–	–	–	–
293.15 K	–	0.051	959.02	31.5	771.6
298.15 K	–	0.065	955.95	31.1	546.33
303.15 K	–	0.082	952.87	30.8	397.17
308.15 K	–	0.103	949.87	30.5	294.59
313.15 K	–	0.128	946.81	30.1	222.26
318.15 K	–	0.159	943.73	29.8	163.91
323.15 K	–	0.197	940.83	29.5	126.15
328.15 K	–	0.244	937.8	29.1	95.03
333.15 K	–	0.299	934.68	28.8	77.93

CCC(=O)[O-].CCCC[NH3+] [butylammonium propanoate]
Conditions	Glass transition temperature [°C]	electrical conductivity [S/m]	mass density [kg/m3]	surface tension liquid-gas [mN/m]	viscosity [mPa·s]
–	-89.40	–	–	–	–
293.15 K	–	0.049	933.95	28.1	916.56
298.15 K	–	0.06	930.84	27.8	669.24
303.15 K	–	0.074	927.79	27.5	494.64
308.15 K	–	0.091	924.86	27.1	371.06
313.15 K	–	0.111	921.76	26.8	280.47
318.15 K	–	0.135	918.77	26.5	211.76
323.15 K	–	0.164	915.69	26.2	162.68
328.15 K	–	0.196	912.7	25.9	128.4
333.15 K	–	0.234	909.66	25.6	99.35

CCCC[NH3+].O=C[O-] [butylammonium formate]
Conditions	Glass transition temperature [°C]	electrical conductivity [S/m]	mass density [kg/m3]	surface tension liquid-gas [mN/m]	viscosity [mPa·s]
–	-108.50	–	–	–	–
293.15 K	–	0.287	976.96	33.8	160.19
298.15 K	–	0.332	973.8	33.3	120.82
303.15 K	–	0.384	970.66	32.9	92.68
308.15 K	–	0.443	967.48	32.4	72.01
313.15 K	–	0.511	964.4	32	57.07
318.15 K	–	0.588	961.21	31.5	45.61
323.15 K	–	0.67	958.02	31.1	37.22
328.15 K	–	0.761	954.95	30.6	30.62
333.15 K	–	0.873	951.82	30.2	25.39

CCCC(=O)[O-].CCCC[NH3+] [n-butylammonium butanoate]
Conditions	Glass transition temperature [°C]	electrical conductivity [S/m]	mass density [kg/m3]	surface tension liquid-gas [mN/m]	viscosity [mPa·s]
–	-81.80	–	–	–	–
293.15 K	–	0.031	907.81	25.7	1112
298.15 K	–	0.038	904.94	25.4	812.6
303.15 K	–	0.047	902.06	25.1	599.38
308.15 K	–	0.059	899.18	24.8	448.37
313.15 K	–	0.073	896.28	24.5	338.47
318.15 K	–	0.089	893.32	24.2	262.05
323.15 K	–	0.109	890.57	23.9	199.16
328.15 K	–	0.132	887.56	23.6	154.43
333.15 K	–	0.159	884.61	23.4	126.18
